Source: patent US10870638B2, “Pyridazinone compound or its salt, and herbicide containing it” (ISHIHARA SANGYO KAISHA, LTD., priority 2016, dated 2020)

Tests used:
Format in all cases: in vivo
Settings in all cases: active ingredient amount 31 g/ha, 14th day after application
[1] = system: redroot pigweed (Amaranthus retroflexus L.); assay: Test Example 1: foliar treatment, growth inhibition rate on 14th day
How it was run: (§1)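 Using a small sprayer, formulated compound in water (0.1 vol % surfactant, 1,000 L/ha) was applied to seedlings grown from seed in upland soil. Fourteen days on, growth state was observed and expressed as percent inhibition from 0 to 100.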

[2] = system: wheat (Triticum aestivum L.); assay: as above
How it was run: as §1

corn (Zea mays L.) [3] = assay: as above
How it was run: as §1

[4] = system: soybean (Glycine max Merr.); assay: as above
How it was run: (§2)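 Sow seeds in upland soil pots; at target leaf stage (wild oat 0.4–1.2, rice 0.2–2.7, foxtail 0.5–3.2, soybean primary leaf) spray formulated compound in water, 1,000 L/ha, 0.1 vol % surfactant. Score inhibition visually at day 14, 0–100%.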

[5] = system: green foxtail (Setaria viridis L.); assay: as above
How it was run: as §2

[6] = system: wild oat (Avena fatua L.); assay: as above
How it was run: as §2

[7] = system: barnyardgrass (Echinochloa crus-qalli L.); assay: as above
How it was run: as §1

[8] = system: crabgrass (Digitaria sanquinalis L.); assay: as above
How it was run: as §1

rice (Oryza sativa L.) [9] = assay: as above
How it was run: as §2

[10] = system: italian ryegrass (Lolium multiflorum Lam.); assay: as above
How it was run: as §1

[11] = system: redroot pigweed (Amaranthus retroflexus L.); assay: Test Example 2: soil application on the day after sowing, growth inhibition rate on 14th day
How it was run: (§3)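 Field soil in 1/300,000 ha pots was sown, and the next day compounds formulated as wettable powders or emulsifiable concentrates were diluted in water (1,000 L/ha) and soil-sprayed at the prescribed active ingredient rates. Growth inhibition was scored visually 14 days later, 0 (untreated) to 100 (complete kill).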

[12] = system: wheat (Triticum aestivum L.); assay: as above
How it was run: as §3

corn (Zea mays L.) [13] = assay: as above
How it was run: as §3

[14] = system: prickly sida (Sida spinosa L.); assay: as above
How it was run: as §3

[15] = system: soybean (Glycine max Merr.); assay: as above
How it was run: as §3

[16] = system: green foxtail (Setaria viridis L.); assay: as above
How it was run: as §3

[17] = system: velvetleaf (Abutilon theophrasti MEDIC.); assay: as above
How it was run: as §3

[18] = system: barnyardgrass (Echinochloa crus-qalli L.); assay: as above
How it was run: as §3

[19] = system: crabgrass (Digitaris sanquinalis L.); assay: as above
How it was run: as §3

rice (Oryza sativa L.) [20] = assay: as above
How it was run: as §3

With `CC(=O)Oc1c(C)nn(C)c(=O)c1-c1cc(Oc2ncc(C(F)(F)F)cc2Cl)ccc1C1CC1` [1-150] the “Growth inhibition rate (%) Redroot pigweed” value [1] was 0%, the “Growth inhibition rate (%) Wheat” value [2] was 99% and the “Growth inhibition rate (%) Corn” value (corn (Zea mays L.) [3]) was 95%. For the same compound, the “Growth inhibition rate (%) Soybean” value [4] was 0%, the “Growth inhibition rate (%) Green foxtail” value [5] was 100% and the “Growth inhibition rate (%) Wild oat” value [6] was 100%. The “Growth inhibition rate (%) Barnyardgrass” value [7] was 100%, the “Growth inhibition rate (%) Crabgrass” value [8] was 100% and the “Growth inhibition rate (%) Rice” value (rice (Oryza sativa L.) [9]) was 88%. For the same compound, the “Growth inhibition rate (%) Italian ryegrass” value [10] was 100%, the “Growth inhibition rate (%) Redroot pigweed” value [11] was 0% and the “Growth inhibition rate (%) Wheat” value [12] was 0%. For the same compound, the “Growth inhibition rate (%) Corn” value (corn (Zea mays L.) [13]) was 0%, the “Growth inhibition rate (%) Prickly sida” value [14] was 0% and the “Growth inhibition rate (%) Soybean” value [15] was 0%. For the same compound, the “Growth inhibition rate (%) Green foxtail” value [16] was 98%, the “Growth inhibition rate (%) Velvetleaf” value [17] was 0% and the “Growth inhibition rate (%) Barnyardgrass” value [18] was 99%. For the same compound, the “Growth inhibition rate (%) Crabgrass” value [19] was 98% and the “Growth inhibition rate (%) Rice” value (rice (Oryza sativa L.) [20]) was 0%.
In the case of `CC(=O)Oc1c(C)nn(C)c(=O)c1-c1cc(Oc2ncc(C(F)(F)F)cc2Cl)c(C)cc1C` [1-152], the “Growth inhibition rate (%) Redroot pigweed” value [1] is reported as 0%, the “Growth inhibition rate (%) Wheat” value [2] is reported as 88% and the “Growth inhibition rate (%) Corn” value (corn (Zea mays L.) [3]) is reported as 90%. For the same compound, the “Growth inhibition rate (%) Soybean” value [4] was 30%, the “Growth inhibition rate (%) Green foxtail” value [5] was 100% and the “Growth inhibition rate (%) Wild oat” value [6] was 100%. For the same compound, the “Growth inhibition rate (%) Barnyardgrass” value [7] was 100%, the “Growth inhibition rate (%) Crabgrass” value [8] was 99% and the “Growth inhibition rate (%) Rice” value (rice (Oryza sativa L.) [9]) was 85%. The “Growth inhibition rate (%) Italian ryegrass” value [10] was 99%, the “Growth inhibition rate (%) Redroot pigweed” value [11] was 0% and the “Growth inhibition rate (%) Wheat” value [12] was 0%. For the same compound, the “Growth inhibition rate (%) Corn” value (corn (Zea mays L.) [13]) was 10%, the “Growth inhibition rate (%) Prickly sida” value [14] was 0% and the “Growth inhibition rate (%) Soybean” value [15] was 10%. The “Growth inhibition rate (%) Green foxtail” value [16] was 85%, the “Growth inhibition rate (%) Velvetleaf” value [17] was 0% and the “Growth inhibition rate (%) Barnyardgrass” value [18] was 80%. For the same compound, the “Growth inhibition rate (%) Crabgrass” value [19] was 35% and the “Growth inhibition rate (%) Rice” value (rice (Oryza sativa L.) [20]) was 0%.
For `CCn1ncc(O)c(-c2cc(Oc3ncc(C(F)(F)F)cc3Cl)ccc2C)c1=O` [1-157], the “Growth inhibition rate (%) Redroot pigweed” value [1] was 0%, the “Growth inhibition rate (%) Wheat” value [2] was 93% and the “Growth inhibition rate (%) Corn” value (corn (Zea mays L.) [3]) was 100%. The “Growth inhibition rate (%) Soybean” value [4] was 20%, the “Growth inhibition rate (%) Green foxtail” value [5] was 100% and the “Growth inhibition rate (%) Wild oat” value [6] was 100%. The “Growth inhibition rate (%) Barnyardgrass” value [7] was 100%, the “Growth inhibition rate (%) Crabgrass” value [8] was 100% and the “Growth inhibition rate (%) Rice” value (rice (Oryza sativa L.) [9]) was 80%. For the same compound, the “Growth inhibition rate (%) Italian ryegrass” value [10] was 99%, the “Growth inhibition rate (%) Redroot pigweed” value [11] was 0% and the “Growth inhibition rate (%) Wheat” value [12] was 0%. For the same compound, the “Growth inhibition rate (%) Corn” value (corn (Zea mays L.) [13]) was 0%, the “Growth inhibition rate (%) Prickly sida” value [14] was 0% and the “Growth inhibition rate (%) Soybean” value [15] was 30%. The “Growth inhibition rate (%) Green foxtail” value [16] was 100%, the “Growth inhibition rate (%) Velvetleaf” value [17] was 0% and the “Growth inhibition rate (%) Barnyardgrass” value [18] was 100%. For the same compound, the “Growth inhibition rate (%) Crabgrass” value [19] was 99% and the “Growth inhibition rate (%) Rice” value (rice (Oryza sativa L.) [20]) was 40%.
